Data set [1] addresses T1, purified N-terminal partial domain of NUP153 (Homo sapiens, UniProt P49790).
T1 construct: a PCR-amplified N-terminus (amino acids 235-326) cDNA of NUP153 (NM_005124); inferred from the pET-28a vector and Ni-NTA purification; made in house; host or cells: Rosetta (DE3) E. coli
T1 sequence (P49790 235-326): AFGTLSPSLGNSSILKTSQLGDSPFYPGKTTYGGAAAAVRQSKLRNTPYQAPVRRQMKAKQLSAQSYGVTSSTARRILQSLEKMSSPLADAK
Nature of the data set: Surface plasmon resonance (SPR) analysis, BIAcore 2000. The data set is classed as binding. The source says: To obtain the recombinant NUP153 protein from bacteria, a PCR-amplified N-terminus (amino acids 235-326) cDNA of NUP153 (NM_005124) was into the EcoRI/SalI site of pET-28a expression vector (Novagen, Billerica, Mass.). Rosetta™ (DE3) E. coli strains were transformed with the plasmid and N-terminus partial domain of NUP153 protein was purified using Ni-NTA agarose bead (Quiagen, Hilden, Germany). Bead bound protein was eluted with elution buffer containing high concentration of imidazole according to the manufacturer's instructions.
Biotin and biotinylated OMe-Syn were sequentially immobilized on the surface of a streptavidin-coated sensor chip. Molecular interaction analysis was performed using the BIAcore 2000 (BIAcore AB) as described previously (Shim et al., Chem. Biol 11, 1455-1463 (2004)). The SPR response curves were analyzed with BIAcore Evaluations software, version 3.1. The apparent association and dissociation constants were calculated from the kinetic constants equations: KA=ka/kd, KD=kd/ka
To examine the binding affinity of OMe-Syn to NUP153, the N-terminal partial domain of NUP153, which corresponds to phage coding sequences (FIG. 2E), was cloned and expressed in Escherichia coli. The cloning and purification of recombinant NUP153 is described in the experimental procedures. […]

Data set [2] relates to intersegmental vessel (ISV) angiogenesis of zebrafish embryos. The data set is described as follows: ISV angiogenesis in fli1a:EGFP transgenic zebrafish embryos. The data set is classed as in vivo. Particulars: 30 hpf. The method, then:
(§1) Zebrafish were maintained on 14 hours light/dark cycle at 28° C. All experiments involving zebrafish were performed according to the National Institute of Health guidelines. Embryos were collected and raised in Ringer's solution according to standard protocol (Westerfield, 1995). Zebrafish were injected in Ringer's solution at the one-cell stage with morpholino oligonucleotides (MO). MO was obtained from Gene Tools (Philomath, Oreg.) with the following sequence to block 5′ translation of NUP153: 5′-[…]-3′ (SEQ ID NO:2) and splicing of NUP153: 5′-[…]-3′ (SEQ ID NO:3), respectively. DMSO and OMe-Syn stock solution (10 mM in DMSO) were dissolved in ringer's solution to appropriate concentrations. […] Embryos were added to the solutions at one cell stage. Tricaine supplied in Ringer's solution (0.6%, w/v) was used to anesthetize the embryos for imaging. Microscopy images of zebrafish were taken with Fluoview FV1000, Olympus.
(§2) The present inventors previously reported that OMe-Syn, an anti-angiogenic small molecule, inhibited VEGF-induced angiogenesis in vitro and in vivo (Kim et al., Biochem. Biophys. Res. Commun 399, 20-23 (2010)). The anti-angiogenic activity of OMe-Syn was further investigated using fli1a:EGFP transgenic zebrafish, a well-established model organism for studying angiogenesis through visualization of blood vessel development.
The present inventors further examined the function of NUP153 in vivo in intersegmental vessel (ISV) angiogenesis of zebrafish embryos using a morpholino oligonucleotide (MO) specific to NUP153. NUP153-specific MOs that block the splicing (n=31) or translation (n=28) of NUP153 were injected into fli1a:EGFP transgenic embryos at the one-cell stage. The blocking of NUP153 splicing was monitored by reverse transcription-polymerase chain reaction (RT-PCR) (FIG. 6A).

The next data set has as its system VEGF mRNA. The data set is described as follows: VEGF mRNA level in treated zebrafish embryos by RT-PCR. The data set is classed as in vivo. Conditions: compared with DMSO-treated controls. The method, then:
as §1, §2

Another data set deals with T2, NUP153-expressing phage (Homo sapiens, UniProt P49790).
T2 construct: host or cells: T7 phage clone isolated from human cDNA libraries (colon tumor, lung tumor, heart)
T2 sequence (P49790 245-326): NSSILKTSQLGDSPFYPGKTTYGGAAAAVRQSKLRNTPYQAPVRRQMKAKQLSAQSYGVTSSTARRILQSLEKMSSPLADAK
The data set is described as follows: Phage binding and phage competition assay.

The test system of data set [3] is retinal neovascularization. The data set is described as follows: Oxygen-induced retinopathy (OIR), counting vascular lumens. The data set is classed as in vivo, C57BL/6 mice. Particulars: mice, 20 μM in 1 μL PBS intravitreously on P14, read at P17, compared to control group. The source says:
OIR was induced as described by Smith et al. (Smith et al., Invest. Ophthalmol. Vis. Sci 35, 101-111 (1994)) with some modifications (Zhang et al., Diabetologia 44, 757-765 (2001)). Briefly, newborn mice were arbitrarily assigned to experimental and control groups. At postnatal day 7 (P7), pups (8-10 pups) in the experimental group were exposed to hyperoxia (75±0.5% 02) for 5 days (P7-P12) and then returned to normoxia (room air) for 6 days. Neovascularization occurs upon return to normoxia and peaks at P17. To assess the anti-angiogenic activity of OMe-Syn, the pups were injected intravitreously with 20 μM OMe-Syn in 1 μL PBS on P14, when maximum retinal neovascularization began.
At P17, the eyes were removed, fixed in 4% paraformaldehyde in 0.1 M phosphate buffer for 24 hours, and embedded in paraffin. Sagittal sections of 5 μm, each 30 μm apart, were cut through the cornea parallel to the optic nerve. The sections were stained with hematoxylin and eosin to assess retinal vasculature via light microscopy (Carl Zeiss, Chester, Va., USA). Any vascular lumens on the vitreal side of the inner limiting membrane were counted in at least 10 sections from each eye by two independent observers blind to treatment. The average intravitreal vessels/section was calculated for each group. There were at least six animals in each group.

The next data set deals with NPC. Nature of the data set: Preliminary investigation of NPC integrity under OMe-Syn treatment.
Data set [4] relates to vascular endothelial growth factor (VEGF)-induced angiogenesis. Particulars: in vitro and in vivo; Kim et al., 2010; cited from earlier work.

We go through one compound from patent publication US10092548B2, “Pharmaceutical compositions for preventing or treating angiogenic diseases comprising inhibitors of NUP153 gene expression or NUP153 activity as active ingredient” (INDUSTRY-ACADEMIC COOPERATION FOUNDATION, YONSEI UNIVERSITY, priority 2013, dated 2018).

The Kd is the constant that tells how readily two partners part at equilibrium.

As to `CNC[C@H](OC)c1ccc(O)cc1` [OMe-Syn, R-(−)-β-O-Methylsynephrine], the affinity in data set [1], expressed as Kd, was 2.4 nM. For the same compound, the “SPR binding of purified NUP153 to immobilized compound” value in data set [1] (compound immobilized on sensor chip, purified NUP153 20 μM) is given as “specifically bound”. In data set [2], the “viability / toxicity of embryos” value is recorded as “without compromising the viability”. In addition, in data set [2] (OMe-Syn 2.5 and 5 μM, 5′-MO 8 ng, sp-MO 12 ng), the “number of complete intersegmental vessels (ISVs) and angiogenic sprouts” value is “decreased number of complete intersegmental vessels (ISVs) in a dose-dependent manner”. For the same compound, the “VEGF mRNA level” value in the data set with VEGF mRNA is listed as “reduced”. The “binding of NUP153-expressing phage to immobilized compound” value at NUP153-expressing phage (phage binding assay, versus biotin) is on record as “specifically bound to OMe-Syn”. Further, at NUP153-expressing phage (pre-incubation with OMe-Syn 50, 100 μM for 1 hour), the “phage competition: binding of phage to immobilized OMe-Syn after pre-incubation” value was “blocked the binding of the phage to immobilized OMe-Syn in a dose-dependent manner”. In data set [3], the “number of vascular lumens (retinal neovascularization)” value is recorded as “effectively reduced number of vascular lumens”. In the data set on NPC, the “NPC integrity and NPC protein interactions” value is “leaves the NPC intact and does not disrupt NPC protein interactions”. Also, in data set [4], the “inhibition of VEGF-induced angiogenesis” value was “inhibit vascular endothelial growth factor (VEGF)-induced angiogenesis in vitro and in vivo”.
